Test results published in patent US4952393A, “Organ infarct imaging with technetium labelled glucarate” (The General Hospital Corporation, priority 1988, dated 1990).
Like-named read-outs stand apart in the source and are kept apart here.

Key:
[1] = room temperature, 1 hr
Protocol: Monopotassium glucarate (25 mg) was dissolved in 0.2M bicarbonate (1.0 ml) at pH 8.0. To 500 ul of glucarate solution, 40 ul of stannous chloride (2.5 mg/ml) in 0.1M acetic acid was added, followed by 500 ul of ^99m Tc generator eluate (60 mCi). The resulting solution was allowed to stand for 5 minutes at room temperature, and then analyzed for radiochemical purity by paper chromatography (Whatman 3MM, 60% CH3 CN:40% H2 O)
^99m Tc-glucarate was prepared as described in Example 1 using different concentrations of potassium glucarate (0.09-12.25 mg/ml). The products were analyzed by paper chromatography (Whatman 3MM, 60% CH3 CN:40%H2 O; ^99m TcO4 ^-Rf= 1.0, ^99m Tc-glucarate,Rf=0.4; ^99m TcO2 ×H2 O, Rf=0).

[2] = Biodistribution of 99mTc-glucarate in various organs in Balb/c mice; type: in vivo; details: i.v., 100 uCi
Protocol: Biodistribution studies were carried out in Balb/c mice. The mice (3 mice per group) were injected intravenously with 100 uCi of technetium-labeled D-glucarate. […]

acute myocardial infarct = assay: Detection of myocardial infarct in the dog (gamma camera imaging); details: for visualization of area of acute myocardial necrosis / blood pool activity: 80 minutes after injection; for visualization of area of acute myocardial necrosis: 10 mCi
Protocol: Mongrel dogs (n=3) were anesthetized with intravenous pentobartitol (30 mg/kg), and respiration maintained on a Harvard respirator. Left thoractomy was performed, the heart suspended in a pericardial cradle and a segment of the left anterior descending coronary artery (LAD) approximately two thirds the distance from the apex to the base was dissected free. The LAD was then occluded with a silk ligature. After three hours of LAD occlusion, the occlusive ligature was removed and reperfusion was established. At 15 minutes of reperfusion, 200 uCi of indium labeled R11D10 Fab-DTPA (Centocor, Inc.) was injected, and 30 seconds later, 10 mCi of technetium labeled glucarate was injected. Serial imaging with a gamma camera was initiated immediately upon tracer administration.
After 5 hours of in vivo imaging sessions, the dogs were sacrificed by pentobarbital overdose. Then, the cardiac tissue was stained with an intravenous triphenyltetrazolium chloride infusion. The heart was excised, washed with cold water, and imaged as a whole excised heart; and also as heart slices cut parallel to the atrioventricular groove in four slices after overnight storage at 4° C. Each slice was then divided into eight equal pieces and each piece subdivided into epicardial and endocardial samples, weighed and then counted in a gamma well counter (LKB Compu Gamma counter) for distribution of the various radioisotopes. […] Blood samples from the contralateral vein were obtained at 1, 2, 3, 4, 5, 10, 15, 20, 30, 45, 60, and 75 minutes. […] At the time of sacrifice, tissue samples from the liver, lungs, kidneys, spleen, and skeletal muscles were also obtained.

[3] = preparation made from 12 mg/ml glucarate
Protocol: Samples of ^99m -Tc-glucarate prepared as described in Example 1 from 6 and 12 mg/ml potassium glucarate were analyzed over a period of 7 hours.

cerebral infarct = assay: Detection of cerebral infarct in the rat (gamma imaging, localization ratio); type: in vivo, Sprague-Dawley CD rats; details: for Tc-99m-glucarate activity (mean +/- SD), ratio stroke regions to normal cerebral regions: i.v., 1.5-2.0 mCi; for DDC activity (mean +/- SD), ratio infarct:normal brain: 0.6 mCi, perfusion deficit marker
Protocol: Tc-99m-glucarate was used to visualize cerebral infarct regions in the rat brain.
Experimental cerebral infarcts were created in 28 Sprague-Dawley CD rats (Charles River Laboratories) by injection of thrombin-generated thrombi into an isolated carotid artery. […] Imaging was performed 1.5-2.0 hours later utilizing a gamma camera having a 3 mm diameter pin hole collimator. […] The gamma images obtained were analyzed by computer planimetry. Ratios of count densities in infarct regions and normal brain regions were calculated.

myocardial infarct = details: Rossman et al., J. Nucl. Med. 16: 980-985 (1975); cited from earlier work
[4] = dog, listed as 99m Tc-glucarate

For Tc-99m-glucarate, the “% 99mTc-Glucarate” value ([1]; 0.09 mg/ml glucaric acid) was 43.0%, the “% 99mTcO2” value ([1]; 0.09 mg/ml glucaric acid) was 57.0% and the “% 99mTc-Glucarate” value ([1]; 0.19 mg/ml glucaric acid) was 59.0%. The “% 99mTcO2” value ([1]; 0.19 mg/ml glucaric acid) was 41.0%, the “% 99mTc-Glucarate” value ([1]; 0.38 mg/ml glucaric acid) was 70.0% and the “% 99mTcO2” value ([1]; 0.38 mg/ml glucaric acid) was 30.0%. The “% 99mTc-Glucarate” value ([1]; 0.76 mg/ml glucaric acid) was 75.6%, the “% 99mTcO2” value ([1]; 0.76 mg/ml glucaric acid) was 24.4% and the “% 99mTc-Glucarate” value ([1]; 1.53 mg/ml glucaric acid) was 80.5%. The “% 99mTcO2” value ([1]; 1.53 mg/ml glucaric acid) was 19.5%, the “% 99mTc-Glucarate” value ([1]; 3.06 mg/ml glucaric acid) was 88.5% and the “% 99mTcO2” value ([1]; 3.06 mg/ml glucaric acid) was 11.5%. For the same substance, the “% 99mTc-Glucarate” value ([1]; 6.12 mg/ml glucaric acid) was 100.0%, the “% 99mTcO2” value ([1]; 6.12 mg/ml glucaric acid) was “.0%” and the “% 99mTc-Glucarate” value ([1]; 12.25 mg/ml glucaric acid) was 100.0%. The “% 99mTcO2” value ([1]; 12.25 mg/ml glucaric acid) was “.0%”, the “Biodistribution, Blood” value ([2]; 1 hour) was 1.72 ± 0.43 % Injected Dose Per Gram and the “Biodistribution, Heart” value ([2]; 1 hour) was 0.63 ± 1.10 % Injected Dose Per Gram. For the same substance, the “Biodistribution, Intestine” value ([2]; 1 hour) was 2.90 ± 1.12 % Injected Dose Per Gram, the “Biodistribution, Kidneys” value ([2]; 1 hour) was 24.3 ± 4.15 % Injected Dose Per Gram and the “Biodistribution, Liver” value ([2]; 1 hour) was 1.54 ± 0.51 % Injected Dose Per Gram. The “Biodistribution, Lungs” value ([2]; 1 hour) was 3.90 ± 1.80 % Injected Dose Per Gram, the “Biodistribution, Muscle” value ([2]; 1 hour) was 0.32 ± 0.20 % Injected Dose Per Gram and the “Biodistribution, Spleen” value ([2]; 1 hour) was 0.44 ± 0.76 % Injected Dose Per Gram. The “Biodistribution, Stomach” value ([2]; 1 hour) was 0.935 % Injected Dose Per Gram, the “Biodistribution, Blood” value ([2]; 4 hours) was 1.26 ± 0.22 % Injected Dose Per Gram and the “Biodistribution, Heart” value ([2]; 4 hours) was 0.75 ± 1.30 % Injected Dose Per Gram. For the same substance, the “Biodistribution, Intestine” value ([2]; 4 hours) was 2.02 ± 0.90 % Injected Dose Per Gram, the “Biodistribution, Kidneys” value ([2]; 4 hours) was 28.50 ± 0.75 % Injected Dose Per Gram and the “Biodistribution, Liver” value ([2]; 4 hours) was 1.49 ± 0.08 % Injected Dose Per Gram. For the same substance, the “Biodistribution, Lungs” value ([2]; 4 hours) was 3.43 ± 1.35 % Injected Dose Per Gram, the “Biodistribution, Muscle” value ([2]; 4 hours) was 2.31 ± 2.98 % Injected Dose Per Gram and the “Biodistribution, Stomach” value ([2]; 4 hours) was 3.49 ± 5.10 % Injected Dose Per Gram. The “Biodistribution, Blood” value ([2]; 8 hours) was 0.90 ± 0.29 % Injected Dose Per Gram, the “Biodistribution, Heart” value ([2]; 8 hours) was 0.30 ± 0.52 % Injected Dose Per Gram and the “Biodistribution, Intestine” value ([2]; 8 hours) was 0.89 ± 0.46 % Injected Dose Per Gram. The “Biodistribution, Kidneys” value ([2]; 8 hours) was 19.20 ± 5.00 % Injected Dose Per Gram, the “Biodistribution, Liver” value ([2]; 8 hours) was 1.03 ± 0.18 % Injected Dose Per Gram and the “Biodistribution, Lungs” value ([2]; 8 hours) was 1.95 ± 1.04 % Injected Dose Per Gram. The “Biodistribution, Muscle” value ([2]; 8 hours) was 0.59 ± 0.82 % Injected Dose Per Gram, the “Biodistribution, Stomach” value ([2]; 8 hours) was 1.13 ± 0.98 % Injected Dose Per Gram and the “Biodistribution, Blood” value ([2]; 24 hours) was 0.56 ± 0.09 % Injected Dose Per Gram. For the same substance, the “Biodistribution, Intestine” value ([2]; 24 hours) was 0.58 ± 0.36 % Injected Dose Per Gram, the “Biodistribution, Kidneys” value ([2]; 24 hours) was 8.4 ± 1.74 % Injected Dose Per Gram and the “Biodistribution, Liver” value ([2]; 24 hours) was 0.42 ± 0.05 % Injected Dose Per Gram. The “Biodistribution, Lungs” value ([2]; 24 hours) was 1.52 ± 1.02 % Injected Dose Per Gram, the “Biodistribution, Muscle” value ([2]; 24 hours) was 0.68 ± 1.00 % Injected Dose Per Gram and the “Biodistribution, Stomach” value ([2]; 24 hours) was 0.39 ± 0.34 % Injected Dose Per Gram. The “visualization of area of acute myocardial necrosis” value (acute myocardial infarct; dog) was “clearly visible”, the “visualization of area of acute myocardial necrosis” value (acute myocardial infarct; [4]) was “clearly visualized” and the blood pool activity (acute myocardial infarct; dog) was “minimum blood activity”. The blood pool activity (acute myocardial infarct; [4]) was “minimum blood pool activity”, the “time to avid myocardial infarct image” value (acute myocardial infarct; dogs) was “one and a half” and the “uptake in area of myocardial infarction of the heart slices” value (acute myocardial infarct; excised heart slices, dog) was “Distinct uptake”. For the same substance, the “stable for a period of” value [3] was “about 2 hours”, the “effect of duration of cerebral injury on localization” value (cerebral infarct; 1, 3, 5 and 24 hours, rats) was “did not appear to affect localization” and the “diffusion across the blood-brain barrier” value (cerebral infarct; imaging in the brain) was “can diffuse across the blood-brain barrier”. The “Tc-99m-glucarate activity (mean +/- SD), ratio stroke regions to normal cerebral regions” value (cerebral infarct; injection 1 hour after infarct, rats) was 2.98 +/- 0.7, the “Tc-99m-glucarate activity (mean +/- SD), ratio stroke regions to normal cerebral regions” value (cerebral infarct; injection 3 hours after infarct, rats) was 4.1 +/- 1.7 and the “Tc-99m-glucarate activity (mean +/- SD), ratio stroke regions to normal cerebral regions” value (cerebral infarct; injection 5 hours after infarct, rats) was 4.1 +/- 2.4. For the same substance, the “Tc-99m-glucarate activity (mean +/- SD), ratio stroke regions to normal cerebral regions” value (cerebral infarct; injection 24 hours after infarct, rats) was 4.8 +/- 1.9, the “accumulation in stroke compared with 99mTc-glucoheptonate” value (cerebral infarct; rats) was “more rapid and intense” and the “ratios of activity in stroke regions to normal cerebral regions, in words” value (cerebral infarct; rats) was “maximal in all stroke animals”. For the same substance, the “time to cerebral infarct image” value (cerebral infarct; rats) was “one” and the “visualization of cerebral infarct regions by gamma scintigraphy” value (cerebral infarct; rats) was “All cerebral infarct regions were visualized”.

In the case of ^99m Tc-D-glucoheptonate, the “success as an imaging agent for myocardial infarct” value (myocardial infarct) is listed as “less successful”.

With “T1-201 diethyldithiocarbamate [DDC, reference compound]” the “DDC activity (mean +/- SD), ratio infarct:normal brain” value (cerebral infarct; 1 hour after infarct, rats) was 0.3 +/- 0.1, the “DDC activity (mean +/- SD), ratio infarct:normal brain” value (cerebral infarct; 3 hours after infarct, rats) was 0.3 +/- 0.3 and the “DDC activity (mean +/- SD), ratio infarct:normal brain” value (cerebral infarct; 5 hours after infarct, rats) was 0.4 +/- 0.2. For the same substance, the “DDC activity (mean +/- SD), ratio infarct:normal brain” value (cerebral infarct; 24 hours after infarct, rats) was 0.3 +/- 0.2.
